Results: patent US12479895B2, “C-terminal CDNF and MANF fragments, pharmaceutical compositions comprising same and uses thereof” (MyNeuroCure Oy, priority 2018, dated 2025)

Tests used:
[1] = system: ER stressed SCG neurons; test: Survival of tunicamycin-treated (ER stressed) SCG sympathetic neurons after microinjection; assay type: cell-based, mice; details: for survived neurons as % compared to neurons grown in the presence of NGF: microinjected into cytoplasm, CDNF (400); for Fold change of survived neurons compared to neurons injected with PBS: data of Table 1 divided by values of PBS
Procedure: Non-neuronal cells were removed by extensive preplating. Almost pure neurons were cultured in polyornithine/laminin (Sigma)-coated 35-mm plastic dishes in the small-size standard microislands in the Neurobasal medium and B27 supplement (Invitrogen/Gibco) in the presence of 30 ng/ml mouse nerve growth factor (NGF) (Promega) for 5-6 days. NGF was deprived by extensive washing and addition of the function-blocking anti-NGF antibodies (Roche). The neurons were pressure-microinjected with special neuronal microinjection equipment (Hellman et al., 2011; Hamner et al., 2001; Lindholm et al., 2002; Sun et al., 2001; Yu et al., 2003)(Sun et al., 2001; Sun et al., 2003). For the survival assay, all neurons on the microislands were counted in the beginning (initial number) and the end (three days) of the experiment and expressed as % of initial.
Microinjection of the sympathetic neurons was performed as described earlier (Yu, L. Y., Jokitalo, E., Sun, Y. F., Mehlen, P., Lindholm, D., Saarma, M., and Arumae, U. (2003) J Cell Biol. 163, 987-997). Plasmids for CDNF have been described earlier. Briefly, newborn mouse SCG neurons were grown with NGF (Promega) for 5-6 days then the nuclei were microinjected with the expression plasmids for full-length (FL)-CDNF and C-CDNF together with a reporter plasmid for enhanced green fluorescent protein (EGFP), using vector concentration of 10 ng/ul in each experiment. […] For protein microinjection, recombinant full length (FL)-CDNF, C-CDNF proteins in PBS at 200 ng/ul were microinjected directly into the cytoplasm together with fluorescent reporter Dextran Texas Red (MW 70000 Da) (Invitrogen, Molecular Probes) that facilitates identification of the successfully injected neurons. Next day tunicamycin (2 μM) was added, and after 3 days the living fluorescent neurons were counted. Living fluorescent (EGFP-expressing or Dextran Texas Red-containing) neurons were “blindly” counted three days later and expressed as percent of initial living fluorescent neurons counted 2-3 hours after microinjection. The experiments with plasmids were repeated on independent cultures 5 times for plasmid experiment, whereas four independent protein injection experiments were performed. On average, 50-80 neurons were successfully injected per experimental group. The results were expressed as the mean±the SEM. Data of each experimental group was compared with control plasmid PCR3.1 (vector) or PBS (in the protein injection experiments) by one-way ANOVA and post hoc Dunnett's t test. The null hypothesis was rejected at p<0.05.

[2] = system: dopamine neurons; test: Survival of TH-positive dopamine neurons in dissociated midbrain floor cultures; assay type: cell-based, mouse; details: for Fold change of survived neurons compared to neurons grown without growth factors: data of Table 3 divided by values of no factor
Procedure: To study the dopamine neurons (Yu et al., 2008; Yu and Arumae, 2008), the midbrain floors were dissected from the ventral mesencephali of 13.5-d-old NMRI strain mouse embryos. Tissues were incubated with 0.5% trypsin (ICN Biomedical), then mechanically dissociated using a large fire-polished Pasteur pipette. The neurons were grown on the poly-L-ornithine-coated (Sigma) 96-well culture plates in DMEM/F12 medium (Invitrogen) containing N2 supplement (Invitrogen) in the presence or absence of GDNF (100 ng/ml) or with CDNF, MANF, C-CDNF and C-MANF polypeptides at different concentrations for five days. Same amount of the neurons were plated to each well at the beginning of the experiments. The cultures without added neurotrophic factors served as the negative control. As the midbrain cultures contain several neuronal types, the cultures were fixed and immunostained with the antibodies to tyrosine hydroxylase (TH) (Millipore), a specific marker for the dopaminergic neurons. Images of each well were scanned by CellInsight™ and immunopositive neurons were counted by CellProfiler and CellProfiler analyst software. Data are expressed as a percentage of GDNF-maintained TH-positive neurons. All experiments were repeated at least three times on the independent cultures. The results were expressed as the mean the SEM and were tested for the significance by either one-way ANOVA and Tukey's post hoc test or by two-tailed Student's t-test. The null hypothesis was rejected at P≤0.05.

In the case of “KYEKTLDLASVDLRKMRVAELKQILHSWGEECRACAEKTDYVNLIQELAPKYA (listed as Homo sapiens) [pep3]”, the “survived neurons as % compared to neurons grown in the presence of NGF” value (“survived neurons as % … of NGF” for short) ([1]; Table 1A (FIG. 14), AVG of exp1-2, tunicamycin 2 μM) is reported as 85.46 % NGF, the “survived neurons as % … of NGF” value ([1]; Table 1A (FIG. 14), exp1, tunicamycin 2 μM, counted after 3 days) is reported as 83.08 % NGF and the “survived neurons as % … of NGF” value ([1]; Table 1A (FIG. 14), exp2, tunicamycin 2 μM, counted after 3 days) is reported as 87.84 % NGF. For the same sequence, the “Fold change of survived neurons compared to neurons injected with PBS” value (“Fold change of survived neurons … with PBS” below) ([1]; Table 2, AVG) was 2.32 Fold to PBS, the “Fold change of survived neurons … with PBS” value ([1]; Table 2, exp1) was 2.42 Fold to PBS and the “Fold change of survived neurons … with PBS” value ([1]; Table 2, exp2) was 2.21 Fold to PBS. For the same sequence, the “survived neurons as % compared to neurons grown in the presence of GDNF” value (“survived neurons as % … of GDNF” below) ([2]; Table 3A (FIG. 15), AVG, 1 ng/ml, 5 days) was 66.40 % GDNF, the “survived neurons as % … of GDNF” value ([2]; Table 3A (FIG. 15), AVG, 10 ng/ml, 5 days) was 73.60 % GDNF and the “survived neurons as % … of GDNF” value ([2]; Table 3A (FIG. 15), AVG, 100 ng/ml, 5 days) was 74.14 % GDNF. For the same sequence, the “survived neurons as % … of GDNF” value ([2]; Table 3A (FIG. 15), AVG, 1000 ng/ml, 5 days) was 81.99 % GDNF, the “survived neurons as % … of GDNF” value ([2]; Table 3A (FIG. 15), exp1, 1 ng/ml, 5 days) was 73.87 % GDNF and the “survived neurons as % … of GDNF” value ([2]; Table 3A (FIG. 15), exp1, 10 ng/ml, 5 days) was 74.30 % GDNF. For the same sequence, the “survived neurons as % … of GDNF” value ([2]; Table 3A (FIG. 15), exp1, 100 ng/ml, 5 days) was 85.15 % GDNF, the “survived neurons as % … of GDNF” value ([2]; Table 3A (FIG. 15), exp1, 1000 ng/ml, 5 days) was 84.53 % GDNF and the “survived neurons as % … of GDNF” value ([2]; Table 3A (FIG. 15), exp2, 1 ng/ml, 5 days) was 62.76 % GDNF. For the same sequence, the “survived neurons as % … of GDNF” value ([2]; Table 3A (FIG. 15), exp2, 10 ng/ml, 5 days) was 64.35 % GDNF, the “survived neurons as % … of GDNF” value ([2]; Table 3A (FIG. 15), exp2, 100 ng/ml, 5 days) was 58.79 % GDNF and the “survived neurons as % … of GDNF” value ([2]; Table 3A (FIG. 15), exp2, 1000 ng/ml, 5 days) was 80.59 % GDNF. For the same sequence, the “survived neurons as % … of GDNF” value ([2]; Table 3A (FIG. 15), exp3, 1 ng/ml, 5 days) was 62.58 % GDNF, the “survived neurons as % … of GDNF” value ([2]; Table 3A (FIG. 15), exp3, 10 ng/ml, 5 days) was 82.16 % GDNF and the “survived neurons as % … of GDNF” value ([2]; Table 3A (FIG. 15), exp3, 100 ng/ml, 5 days) was 78.46 % GDNF. The “survived neurons as % … of GDNF” value ([2]; Table 3A (FIG. 15), exp3, 1000 ng/ml, 5 days) was 80.86 % GDNF, the “Fold change of survived neurons compared to neurons grown without growth factors” value ([2]; Table 4, AVG, 1 ng/ml) was 1.08 fold and the “Fold change of survived neurons compared to neurons grown without growth factors” value ([2]; Table 4, AVG, 10 ng/ml) was 1.20 fold. For the same sequence, the “Fold change of survived neurons compared to neurons grown without growth factors” value ([2]; Table 4, AVG, 100 ng/ml) was 1.21 fold, the “Fold change of survived neurons compared to neurons grown without growth factors” value ([2]; Table 4, AVG, 1000 ng/ml) was 1.34 fold and the “Fold change of survived neurons compared to neurons grown without growth factors” value ([2]; Table 4, exp1, 1 ng/ml) was 1.29 fold. The “Fold change of survived neurons compared to neurons grown without growth factors” value ([2]; Table 4, exp1, 10 ng/ml) was 1.30 fold, the “Fold change of survived neurons compared to neurons grown without growth factors” value ([2]; Table 4, exp1, 100 ng/ml) was 1.49 fold and the “Fold change of survived neurons compared to neurons grown without growth factors” value ([2]; Table 4, exp1, 1000 ng/ml) was 1.48 fold. The “Fold change of survived neurons compared to neurons grown without growth factors” value ([2]; Table 4, exp2, 1 ng/ml) was 1.00 fold, the “Fold change of survived neurons compared to neurons grown without growth factors” value ([2]; Table 4, exp2, 10 ng/ml) was 1.02 fold and the “Fold change of survived neurons compared to neurons grown without growth factors” value ([2]; Table 4, exp2, 100 ng/ml) was 0.93 fold. The “Fold change of survived neurons compared to neurons grown without growth factors” value ([2]; Table 4, exp2, 1000 ng/ml) was 1.28 fold, the “Fold change of survived neurons compared to neurons grown without growth factors” value ([2]; Table 4, exp3, 1 ng/ml) was 0.97 fold and the “Fold change of survived neurons compared to neurons grown without growth factors” value ([2]; Table 4, exp3, 10 ng/ml) was 1.27 fold. For the same sequence, the “Fold change of survived neurons compared to neurons grown without growth factors” value ([2]; Table 4, exp3, 100 ng/ml) was 1.21 fold and the “Fold change of survived neurons compared to neurons grown without growth factors” value ([2]; Table 4, exp3, 1000 ng/ml) was 1.25 fold.

With “TLDLASVDLRKMRVAEPKQILHSWGEECRACAEKTDYVNLIQELAPKYA (Mutated C-CDNF peptide) [pep12]” the “survived neurons as % … of NGF” value ([1]; Table 1B (FIG. 16), exp1, tunicamycin 2 μM, counted after 3 days) was 86.74 % NGF, the “survived neurons as % … of NGF” value ([1]; Table 1B (FIG. 16), exp2, tunicamycin 2 μM, counted after 3 days) was 86.15 % NGF and the “survived neurons as % … of NGF” value ([1]; Table 1B (FIG. 16), exp3, tunicamycin 2 μM, counted after 3 days) was 70.17 % NGF. The “rescue of ER stressed SCG neurons (result in words)” value ([1]; protein or peptide microinjected into the cytoplasm, tunicamycin 2 μM, living fluorescent neurons counted after 3 days) was “rescue”, the “survived neurons as % … of GDNF” value ([2]; Table 3B (FIG. 17), AVG, 1 ng/ml, 5 days) was 68.57 % GDNF and the “survived neurons as % … of GDNF” value ([2]; Table 3B (FIG. 17), AVG, 10 ng/ml, 5 days) was 83.1 % GDNF. For the same sequence, the “survived neurons as % … of GDNF” value ([2]; Table 3B (FIG. 17), AVG, 100 ng/ml, 5 days) was 87.93 % GDNF, the “survived neurons as % … of GDNF” value ([2]; Table 3B (FIG. 17), AVG, 1000 ng/ml, 5 days) was 84.16 % GDNF and the “protection of dopaminergic neurons in culture (result in words)” value ([2]; added to the culture medium, 5 days, TH-positive neurons counted) was “best protective effect”.
